Experiments:
Hs578T [1] = experiment: normalised viability (% of control), CellTiter-Blue; higher = more viable cells (100 = DMSO, 0 = benzethonium chloride kill control); conditions: 0.1 nM; incubation time: 72 h
Summary of the method: (§1)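 Normalised viability is given for a single listed concentration of the series. In 384-well plates, breast cancer cell lines were incubated 72 h with compound, then read with CellTiter-Blue (2 h, 37 °C) at 560/590 nm. Per-plate scaling set vehicle to 100 and a positive kill control to 0, with Z'-factor quality control.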

MDA-MB-436 [2] = experiment: as above; conditions: 0.1 nM; incubation time: 72 h
Summary of the method: as §1

CAL-120 [3] = conditions: 72 h
Summary of the method: (§2)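 In this assay, breast cancer cell lines spent 72 h with compound at 5 concentrations in 10-fold steps over a compound-specific 10,000-fold range. The first readout was cell death by CellTox Green fluorescence, and the second was viability by CellTiter-Glo luminescence, each normalised per plate to 0.1 % DMSO and a positive kill control. EC50 came from the dose-response curves, censored at the top concentration.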

MDA-MB-453 [4] = conditions: 72 h
Summary of the method: as §2

CAL-51 [5] = conditions: 72 h
Summary of the method: as §2

HCC1937 [6] = conditions: 72 h
Summary of the method: as §2

BT-549 [7] = conditions: 72 h
Summary of the method: as §2

SK-BR-3 [8] = conditions: 72 h
Summary of the method: as §2

MDA-MB-468 [9] = conditions: 72 h
Summary of the method: as §2

CAL-85-1 [10] = conditions: 72 h
Summary of the method: as §2

BT-474 [11] = conditions: 72 h
Summary of the method: as §2

MCF-10A = conditions: 72 h
Summary of the method: as §2

MDA-MB-231 [12] = conditions: 72 h
Summary of the method: as §2

Hs578T [13] = conditions: 72 h
Summary of the method: as §2

MDA-MB-436 [14] = conditions: 72 h
Summary of the method: as §2

HDQ-P1 [15] = experiment: normalised viability (% of control), CellTiter-Blue; higher = more viable cells (about 100 = DMSO control); conditions: 10 nM; incubation time: 72 h
Summary of the method: as §1

CAL-148 [16] = experiment: as above; conditions: 10 nM; incubation time: 72 h
Summary of the method: as §1

BT-474 [17] = experiment: as above; conditions: 1000 nM; incubation time: 72 h
Summary of the method: as §1

MDA-MB-231 [18] = experiment: as above; conditions: 1000 nM; incubation time: 72 h
Summary of the method: as §1

MDA-MB-436 [19] = experiment: as above; conditions: 1000 nM; incubation time: 72 h
Summary of the method: as §1

HDQ-P1 [20] = experiment: as above; conditions: 0.3 nM; incubation time: 72 h
Summary of the method: as §1

MFM-223 = experiment: as above; conditions: 1 nM; incubation time: 72 h
Summary of the method: as §1

CAL-120 [21] = experiment: as above; conditions: 1 nM; incubation time: 72 h
Summary of the method: as §1

HCC1143 = experiment: as above; conditions: 1 nM; incubation time: 72 h
Summary of the method: as §1

DU-4475 = experiment: as above; conditions: 0.3 nM; incubation time: 72 h
Summary of the method: as §1

MDA-MB-453 [22] = experiment: as above; conditions: 0.3 nM; incubation time: 72 h
Summary of the method: as §1

CAL-51 [23] = experiment: as above; conditions: 0.3 nM; incubation time: 72 h
Summary of the method: as §1

CAL-148 [24] = experiment: as above; conditions: 0.3 nM; incubation time: 72 h
Summary of the method: as §1

HCC1937 [25] = experiment: as above; conditions: 1 nM; incubation time: 72 h
Summary of the method: as §1

BT-549 [26] = experiment: as above; conditions: 1 nM; incubation time: 72 h
Summary of the method: as §1

SK-BR-3 [27] = experiment: as above; conditions: 1 nM; incubation time: 72 h
Summary of the method: as §1

MDA-MB-468 [28] = experiment: as above; conditions: 1 nM; incubation time: 72 h
Summary of the method: as §1

CAL-85-1 [29] = experiment: as above; conditions: 0.3 nM; incubation time: 72 h
Summary of the method: as §1

BT-474 [30] = experiment: as above; conditions: 1 nM; incubation time: 72 h
Summary of the method: as §1

HCC1599 = experiment: as above; conditions: 1 nM; incubation time: 72 h
Summary of the method: as §1

MDA-MB-231 [31] = experiment: as above; conditions: 1 nM; incubation time: 72 h
Summary of the method: as §1

Hs578T [32] = experiment: as above; conditions: 1 nM; incubation time: 72 h
Summary of the method: as §1

MDA-MB-436 [33] = experiment: as above; conditions: 1 nM; incubation time: 72 h
Summary of the method: as §1

C/C(=C\c1csc(C)n1)[C@@H]1C[C@@H]2O[C@]2(C)CCC[C@H](C)[C@H](O)[C@@H](C)C(=O)C(C)(C)[C@@H](O)CC(=O)O1 [Patupilone]
Conditions | EC50, CellTiter-Glo [nM] | normalised viability [%]
BT-474 [11] | 219 | –
BT-474 [17] | – | 25.4
BT-474 [30] | – | 103
BT-549 [7] | 9.09 | –
BT-549 [26] | – | 106
CAL-51 [5] | 8.54 | –
CAL-51 [23] | – | 106
CAL-85-1 [10] | 18.9 | –
CAL-85-1 [29] | – | 95.2
CAL-120 [3] | 73.8 | –
CAL-120 [21] | – | 109
CAL-148 [16] | – | 32.3
CAL-148 [24] | – | 96.3
DU-4475 | – | 90.2
HCC1143 | – | 91.6
HCC1599 | – | 108
HCC1937 [6] | > 1000 | –
HCC1937 [25] | – | 79.4
HDQ-P1 [15] | – | 92.5
HDQ-P1 [20] | – | 107
Hs578T [1] | – | 118
Hs578T [13] | 57.3 | –
Hs578T [32] | – | 102
MCF-10A | 57.4 | –
MDA-MB-231 [12] | 149 | –
MDA-MB-231 [18] | – | 30.7
MDA-MB-231 [31] | – | 59.6
MDA-MB-436 [2] | – | 116
MDA-MB-436 [14] | 14.9 | –
MDA-MB-436 [19] | – | 40.1
MDA-MB-436 [33] | – | 86.8
MDA-MB-453 [4] | 84.9 | –
MDA-MB-453 [22] | – | 114
MDA-MB-468 [9] | 7.53 | –
MDA-MB-468 [28] | – | 96
MFM-223 | – | 105
SK-BR-3 [8] | 38.9 | –
SK-BR-3 [27] | – | 112

From the supplement of paper PMC4862054
